Here are results for nine compounds from patent US10543298B2, “Salts of tetracyclines” (Hovione Scientia Limited, priority 2015, dated 2020).

Data set [1] can be described thus: Color classification according to the Munsell color system. The class given is physicochemical. As to conditions: for Munsell Classification: Munsell color system. The text has this:
The table below presents the color classification of the doxycycline salts according to the Munsell color system.

Data set [2] is described as follows: Solubility in buffers at pH 1.0, 1.2, 4.5, 6.8 and 7.5. It counts as physicochemical. The note with it: for Solubility pH = 1.0 (class) / Solubility pH = 1.0 (volume of solvent required for dissolution per gram of solute): buffer pH 1.0, KCl 0.2 M / HCl 0.2 M; for Solubility pH = 1.2 (class) / Solubility pH = 1.2 (volume of solvent required for dissolution per gram of solute): buffer pH 1.2, KCl 0.2 M / HCl 0.2 M; for Solubility pH = 4.5 (class) / Solubility pH = 4.5 (volume of solvent required for dissolution per gram of solute): buffer pH 4.5, potassium biphthalate 0.2 M / HCl 0.2 M; for Solubility pH = 6.8 (class) / Solubility pH = 6.8 (volume of solvent required for dissolution per gram of solute): buffer pH 6.8, monobasic potassium phosphate 0.2 M / NaOH 0.2 M; for Solubility pH = 7.5 (class) / Solubility pH = 7.5 (volume of solvent required for dissolution per gram of solute): buffer pH 7.5, monobasic potassium phosphate 0.2 M / NaOH 0.2 M. As to the method: The buffers at pH 1.0 and 1.2 were prepared with aqueous solutions of potassium chloride 0.2M and hydrochloric acid 0.2 M, the buffers at pH 6.8 and 7.5 were prepared with aqueous solutions of monobasic potassium phosphate 0.2 M and sodium hydroxide 0.2 M and the buffer at pH 4.5 with aqueous solutions of potassium biphthalate 0.2 M and hydrochloric acid 0.2 M, according to pharmacopoeia USP31.
The statement freely soluble means that the volume of solvent (required for dissolution) in ml per gram of solute is of from 1 to 10. The statement soluble means that the volume of solvent (required for dissolution) in ml per gram of solute is of from […]. The statement sparingly soluble means that the volume of solvent (required for dissolution) in ml per gram of solute is of from 30 to 100. The statement slightly soluble means that the volume of solvent (required for dissolution) in ml per gram of solute is of from 100 to 1000. The statement very slightly soluble means that the volume of solvent (required for dissolution) in ml per gram of solute is from 1000 to 10 000.

A short description of data set [3]: pH of aqueous solutions of the salts. As to conditions: for pH: aqueous solution, concentration approximately 10^-3 M.

`CCO.C[C@H]1c2cccc(O)c2C(=O)C2=C(O)[C@]3(O)C(=O)C(C(N)=O)=C(O)[C@@H](N(C)C)[C@@H]3[C@@H](O)[C@@H]21.C[C@H]1c2cccc(O)c2C(=O)C2=C(O)[C@]3(O)C(=O)C(C(N)=O)=C(O)[C@@H](N(C)C)[C@@H]3[C@@H](O)[C@@H]21.Cl.Cl.O` [Doxycycline Hyclate, reference compound]: in data set [1], the “Color Description” value is on record as “Yellowish” and the “Munsell Classification” value was 10Y 9/3.5 NN. Also, the “Munsell Classification” value in data set [1] (listed as doxycycline hyclate) was “yellowish 10Y”. For the same compound, in data set [2], the “Solubility pH = 1.0 (class)” value was “Soluble (The statement soluble means that the volume of solvent (required for dissolution) in ml per gram of solute is of from 1 to 30)”, the “Solubility pH = 1.0 (volume of solvent required for dissolution per gram of solute)” value is recorded as 16 ml/g, the “Solubility pH = 1.2 (class)” value is reported as “Freely soluble (The statement freely soluble means that the volume of solvent (required for dissolution) in ml per gram of solute is of from 1 to 10)” and the “Solubility pH = 1.2 (volume of solvent required for dissolution per gram of solute)” value was found to be 3 ml/g. In data set [2], the “Solubility pH = 4.5 (class)” value is “Sparingly (The statement sparingly soluble means that the volume of solvent (required for dissolution) in ml per gram of solute is of from 30 to 100)”, the “Solubility pH = 4.5 (volume of solvent required for dissolution per gram of solute)” value is given as 53 ml/g, the “Solubility pH = 6.8 (class)” value is on record as “Freely soluble (The statement freely soluble means that the volume of solvent (required for dissolution) in ml per gram of solute is of from 1 to 10)” and the “Solubility pH = 6.8 (volume of solvent required for dissolution per gram of solute)” value came to 2 ml/g. In addition, in data set [2], the “Solubility pH = 7.5 (class)” value is given as “Sparingly (The statement sparingly soluble means that the volume of solvent (required for dissolution) in ml per gram of solute is of from 30 to 100)” and the “Solubility pH = 7.5 (volume of solvent required for dissolution per gram of solute)” value was 100 ml/g.

Consider `CC1c2cccc(O)c2C(O)=C2C(=O)C3(O)C(O)=C(C(N)=O)C(=O)C(N(C)C)C3C(O)C21.O=C(O)C=CC(=O)O` (stereo not shown) [Doxycycline Maleate], for which, in data set [1], the “Color Description” value is listed as “Off-white” and the “Munsell Classification” value is listed as 9.25/10Y/2.5 NN. Further, in data set [2], the “Solubility pH = 1.0 (class)” value is reported as “Soluble (The statement soluble means that the volume of solvent (required for dissolution) in ml per gram of solute is of from 1 to 30)”, the “Solubility pH = 1.0 (volume of solvent required for dissolution per gram of solute)” value was 13 ml/g, the “Solubility pH = 1.2 (class)” value is recorded as “Soluble (The statement soluble means that the volume of solvent (required for dissolution) in ml per gram of solute is of from 1 to 30)” and the “Solubility pH = 1.2 (volume of solvent required for dissolution per gram of solute)” value is 13 ml/g. Besides, in data set [2], the “Solubility pH = 4.5 (class)” value is listed as “Sparingly (The statement sparingly soluble means that the volume of solvent (required for dissolution) in ml per gram of solute is of from 30 to 100)”, the “Solubility pH = 4.5 (volume of solvent required for dissolution per gram of solute)” value is 63 ml/g, the “Solubility pH = 6.8 (class)” value was “Sparingly (The statement sparingly soluble means that the volume of solvent (required for dissolution) in ml per gram of solute is of from 30 to 100)” and the “Solubility pH = 6.8 (volume of solvent required for dissolution per gram of solute)” value was 83 ml/g. Also, in data set [2], the “Solubility pH = 7.5 (class)” value is on record as “Sparingly (The statement sparingly soluble means that the volume of solvent (required for dissolution) in ml per gram of solute is of from 30 to 100)” and the “Solubility pH = 7.5 (volume of solvent required for dissolution per gram of solute)” value was found to be 77 ml/g. In data set [2] (pH 4.5, pH 6.8 and pH 7.5), the “Solubility compared with doxycycline monohydrate” value is “higher than that of the monohydrate”. Also, in data set [3], the pH stood at 3.3.

For the compound `C[C@H]1c2cccc(O)c2C(=O)C2=C(O)[C@]3(O)C(=O)C(C(N)=O)=C(O)[C@@H](N(C)C)[C@@H]3[C@@H](O)[C@@H]21` [Doxycycline Monohydrate, reference compound], in data set [1], the “Color Description” value was “Yellowish” and the “Munsell Classification” value amounted to 10Y/9/3.5 NN. Moreover, in data set [2], the “Solubility pH = 1.0 (class)” value is “Soluble (The statement soluble means that the volume of solvent (required for dissolution) in ml per gram of solute is of from 1 to 30)”, the “Solubility pH = 1.0 (volume of solvent required for dissolution per gram of solute)” value is listed as 19 ml/g, the “Solubility pH = 1.2 (class)” value is reported as “Soluble (The statement soluble means that the volume of solvent (required for dissolution) in ml per gram of solute is of from 1 to 30)” and the “Solubility pH = 1.2 (volume of solvent required for dissolution per gram of solute)” value is recorded as 25 ml/g. For the same compound, in data set [2], the “Solubility pH = 4.5 (class)” value is on record as “Slightly (The statement slightly soluble means that the volume of solvent (required for dissolution) in ml per gram of solute is of from 100 to 1000)”, the “Solubility pH = 4.5 (volume of solvent required for dissolution per gram of solute)” value worked out at 1000 ml/g, the “Solubility pH = 6.8 (class)” value is given as “Slightly (The statement slightly soluble means that the volume of solvent (required for dissolution) in ml per gram of solute is of from 100 to 1000)” and the “Solubility pH = 6.8 (volume of solvent required for dissolution per gram of solute)” value is 333 ml/g. Besides, in data set [2], the “Solubility pH = 7.5 (class)” value is on record as “Slightly (The statement slightly soluble means that the volume of solvent (required for dissolution) in ml per gram of solute is of from 100 to 1000)” and the “Solubility pH = 7.5 (volume of solvent required for dissolution per gram of solute)” value is 1000 ml/g.

With `C[C@H]1c2cccc(O)c2C(O)=C2C(=O)[C@]3(O)C(O)=C(C(N)=O)C(=O)[C@@H](N(C)C)[C@@H]3[C@@H](O)[C@@H]21.O=C(O)C(=O)O` [Doxycycline Oxalate], in data set [1], the “Color Description” value was “Yellowish” and the “Munsell Classification” value is 5Y/9/4 NN. In data set [2], the “Solubility pH = 1.0 (class)” value was “Slightly (The statement slightly soluble means that the volume of solvent (required for dissolution) in ml per gram of solute is of from 100 to 1000)”, the “Solubility pH = 1.0 (volume of solvent required for dissolution per gram of solute)” value was 500 ml/g, the “Solubility pH = 1.2 (class)” value is “Very Slightly (The statement very slightly soluble means that the volume of solvent (required for dissolution) in ml per gram of solute is from 1000 to 10 000)” and the “Solubility pH = 1.2 (volume of solvent required for dissolution per gram of solute)” value stood at 1900 ml/g. Also, in data set [2], the “Solubility pH = 4.5 (class)” value is reported as “Slightly (The statement slightly soluble means that the volume of solvent (required for dissolution) in ml per gram of solute is of from 100 to 1000)”, the “Solubility pH = 4.5 (volume of solvent required for dissolution per gram of solute)” value was found to be 500 ml/g, the “Solubility pH = 6.8 (class)” value is on record as “Slightly (The statement slightly soluble means that the volume of solvent (required for dissolution) in ml per gram of solute is of from 100 to 1000)” and the “Solubility pH = 6.8 (volume of solvent required for dissolution per gram of solute)” value is recorded as 125 ml/g. Besides, in data set [2], the “Solubility pH = 7.5 (class)” value is on record as “Slightly (The statement slightly soluble means that the volume of solvent (required for dissolution) in ml per gram of solute is of from 100 to 1000)” and the “Solubility pH = 7.5 (volume of solvent required for dissolution per gram of solute)” value was 143 ml/g. Besides, in data set [2] (pH 1.0, 1.2, 4.5, 6.8 and 7.5 (all pH values tested)), the “Solubility compared with the hydrochloride / hyclate” value was “lower than that of the hyclate”. Further, the “Solubility compared with doxycycline monohydrate” value in data set [2] (pH 1.0 and pH 1.2) is “lower than that of the monohydrate”. Moreover, in data set [2] (pH 4.5, pH 6.8 and pH 7.5), the “Solubility compared with doxycycline monohydrate” value is recorded as “similar”. The pH in data set [3] is given as 3.2.

As for `CN(C)c1ccc(O)c2c1C[C@H]1C[C@H]3[C@H](N(C)C)C(O)=C(C(N)=O)C(=O)[C@@]3(O)C(O)=C1C2=O` [Minocycline Base, 7-dimethylamino-6-demethyl-6-deoxytetracycline, reference compound], in data set [1], the “Color Description” value is “Yellowish” and the “Munsell Classification” value is listed as 7.5Y/9/10 NN. Moreover, in data set [3], the pH came to 6.8.

Take `CN(C)C1C(O)=C(C(N)=O)C(=O)C2(O)C(O)=C3C(=O)c4c(O)cccc4C(C)(O)C3CC12.O=C(O)C(=O)O` (stereo not shown) [Tetracycline Oxalate]: in data set [1], the “Color Description” value is on record as “Yellowish” and the “Munsell Classification” value is given as 10Y/9/8 NN. In data set [3], the pH was found to be 3.2. Besides, the “pH compared with the marketed form” value in data set [3] (comparison of the values of the pH table) is given as “less acidic than the pH of tetracycline”.

In the case of `CN(C)[C@@H]1C(O)=C(C(N)=O)C(=O)[C@@]2(O)C(O)=C3C(=O)c4c(O)cccc4[C@@](C)(O)[C@H]3C[C@@H]12` [Tetracycline], in data set [1], the “Color Description” value was “Yellowish” and the “Munsell Classification” value was 5Y/9/4 NN.

On to Demeclocycline Oxalate, for which, in data set [1], the “Color Description” value is reported as “Yellowish” and the “Munsell Classification” value worked out at 5Y/9/2.5 NN. Besides, the pH in data set [3] came out at 3.3.

Minocycline Oxalate: in data set [1], the “Color Description” value was “Yellowish” and the “Munsell Classification” value is 10/Y/9/3.5 NN. Besides, in data set [3], the pH turned out to be 3.0.
